# From US20110281852A1 (priority 2010, published 2011)
# Legend:
# GATA-2 = experiment: Immunoblot, GATA-2 protein in 3T3-L1 cells; type: cell-based, mouse; details: DM + 1, 2, 4, 8 μM, 8 days, p<0.05
# Procedure: Immunoblot Analysis: GATA-2 and GATA-3 protein expression were assessed by Western blot. […] The cells were washed twice with PBS, lysed in a lysis buffer (HEPES-Tx-PI buffer: 10 mM HEPES, 5 mM EDTA, 350 mM Sucrose, 1 ug/ml leupeptin, 1 ug/ml pepstatin, 1% Triton-X, 1 mM PMSF, diluted in water), processed with a 25G needle and centrifuged at 10,000 rpm for 5 min. Protein concentration was determined using the […] according to the Pierce Protein Assay Protocol. Total protein (50 μg) was used for GATA-2 and GATA-3 analysis and was separated by electrophoresis using BioRad Electrophoretic System (60 V for 1 hour followed by 90 V for 5 hours). The protein was then transferred to nitrocellulose membranes at 35 V overnight. The membrane was blocked for 1 hour at room temperature in 5% nonfat milk in Tris-buffered saline (TBS), then washed with Tween-20-TBS (TTBS, 0.1% Tween-20) three times (15 min, 5 min, 5 min), followed by incubation with primary antibodies of GATA-2 (dilution 1:500), GATA-3 (dilution 1:500), β-Actin (dilution 1:1000) at room temperature for 2 hours. The membrane was rinsed three times (15 min, 5 min, 5 min), then incubated at room temperature for 1 hour with Horseradish peroxidase-conjugated second antibody (1:10,000). The membrane was then incubated in ECL reagent for 1 minute. Protein was visualized using UVP image analysis system.
# C/EBPα = experiment: Immunoblotting, C/EBPα protein in 3T3-L1; type: cell-based, mouse; details: 8 days
# Procedure: Immunoblotting: Protein expression of SREBP-1, PPARγ, and C/EBPα relative to […] was assessed by Western Blot. Total proteins were isolated from 3T3-L1 cells treated with compounds or vehicles for 8 days. The cells were washed twice with PBS, lysed in a HEPES-Tx-PI buffer ([…], 5 mM EDTA, 350 mM Sucrose, 1 μg/ml leupeptin, 1 μg/ml pepstatin, 1% Triton-X, 1 mM PMSF), processed with 25G needles and centrifuged at 12,000 rpm for 5 min. Protein concentration was determined using the Micro BCA Protein Assay Kit (Fisher Scientific, Pittsburgh, Pa., USA) following the manufacturers instructions. 25 μg proteins were loaded and separated by electrophoresis using the BioRad Electrophoretic System (65 V for 7 hour). The proteins were then transferred to nitrocellulose membranes at 40 V overnight. The membrane was blocked for 1 hour at room temperature in 5% nonfat milk in Tris-buffered saline (TBS), then washed with Tween-20-TBS (TTBS, 0.1% Tween-20) three times (15 min, 5 min, 5 min), followed by incubation with primary antibodies SREBP-1 (dilution 1:200), PPARγ (dilution 1:200), C/EBPα (dilution 1:200) (all purchased from Santa Cruz Biotechnology, Santa Cruz, Calif., USA) and […] (dilution 1:1000, Sigma-Aldrich, St. Louis, Mo., USA) at room temperature for 2 hours. […]
# PPARγ = experiment: Immunoblotting, PPARγ protein in 3T3-L1; type: cell-based, mouse; details: 8 days
# Procedure: Immunoblotting: Protein expression of SREBP-1, PPARγ, and C/EBPα relative to 3-actin was assessed by Western Blot. Total proteins were isolated from 3T3-L1 cells treated with compounds or vehicles for 8 days. The cells were washed twice with PBS, lysed in a HEPES-Tx-PI buffer (910 mM HEPES, 5 mM EDTA, 350 mM Sucrose, 1 μg/ml leupeptin, 1 μg/ml pepstatin, 1% Triton-X, 1 mM PMSF), processed with 25G needles and centrifuged at 12,000 rpm for 5 min. Protein concentration was determined using the Micro BCA Protein Assay Kit (Fisher Scientific, Pittsburgh, Pa., USA) following the manufacturers instructions. 25 μg proteins were loaded and separated by electrophoresis using the BioRad Electrophoretic System (65 V for 7 hour). The proteins were then transferred to nitrocellulose membranes at 40 V overnight. The membrane was blocked for 1 hour at room temperature in 5% nonfat milk in Tris-buffered saline (TBS), then washed with Tween-20-TBS (TTBS, 0.1% Tween-20) three times (15 min, 5 min, 5 min), followed by incubation with primary antibodies SREBP-1 (dilution 1:200), PPARγ (dilution 1:200), C/EBPα (dilution 1:200) (all purchased from Santa Cruz Biotechnology, Santa Cruz, Calif., USA) and 3-actin (dilution 1:1000, Sigma-Aldrich, St. Louis, Mo., USA) at room temperature for 2 hours. […]
# GATA-3 = experiment: Immunoblot, GATA-3 protein in epididymal fat of FD mice; type: in vivo, mouse
# Procedure: RNA and protein purification and quantification from epididymal fat tissues: RNA and protein was isolated from 60 mg of epididymal fat tissues with Trizol (Invitrogen, Carlsbad, Calif., USA) following the protocol recommended by the manufacturers. RNA was dissolved in pure water and quantified at 260/280 nm, and sample integrity was checked by 1.5% agarose gel electrophoresis. Protein concentration was determined using the Micro BCA Protein Assay Kit (Fisher Scientific, Pittsburgh, Pa., USA) according to the manufacturer's instructions.
# Immunoblot Analysis: Protein expression of GATA-2, GATA-3, PPARγ and C/EBPα in the control of β-actin was assessed by Western Blot. Protein samples from the same group were homogenized as previously reported (Hu and Davies, Phytomedicine (2009) 16:864-873). Protein (25 μg) was separated by polyacrylamide gel electrophoresis using the BioRad Electrophoretic System (60 V for 1 h followed by 90 V for 5 h). The proteins were then transferred to nitrocellulose membranes at 35 V overnight. The membrane was blocked for 1 h at room temperature in 5% nonfat milk in Tris-buffered saline (TBS), then washed with Tween-20-TBS (TTBS, 0.1% Tween-20) three times (15 min, 5 min, 5 min), followed by incubation with primary antibodies mouse GATA-2, GATA-3 (dilution 1:200), PPARγ, C/EBPα and β-actin (dilution 1:500) at room temperature for 2 h (all antibodies were purchased from Santa Cruz Biotechnology, Santa Cruz, Calif., USA). The membrane was rinsed three times (15 min, 5 min, 5 min), then incubated at room temperature for 1 h with horseradish peroxidase-conjugated second antibody (1:10,000). The membrane was then incubated in ECL reagent (GE Healthcare, Piscataway, N.J., USA) for 1 min. Protein was visualized using the UVP image analysis system (UVP, Upland, Calif., USA).
# [1] = 8 μM berberine + 15 μM clozapine
# [2] = 8 μM berberine + 50 μM risperidone
smiles,measurement,setting,value
"COc1ccc2cc3[n+](cc2c1OC)CCc1cc2c(cc1-3)OCO2.[Cl-] [berberine, Berberine (Chloride Form)]",GATA-2 protein expression,GATA-2,increase
same,decrease of C/EBPα protein expression vs clozapine treated group,C/EBPα; [1],73%
same,decrease of C/EBPα protein expression vs risperidone treated group,C/EBPα; [2],68%
same,decrease of PPARγ protein expression vs clozapine treated group,PPARγ; [1],76%
same,decrease of PPARγ protein expression vs risperidone treated group,PPARγ; [2],85.7%
same,GATA-3 protein expression increased to,GATA-3; 0.75 mg/kg/day,2.2 fold
same,GATA-3 protein expression increased to,GATA-3; 1.5 mg/kg/day,2.5 fold
same,GATA-3 protein expression increased to,GATA-3; 3 mg/kg/day,6.9 fold
